Assay results from patent US9549886B2, “Personal care formulations containing alkyl ketal esters and methods of manufacture” (SEGETIS, INC., priority 2010, dated 2017).
Values joined by “and” are separate entries in the source; they are usually repeats but may differ in a detail not shown here. Equal entries are not always repeated. Values belong to the molecule of their own block, whether it stands above or below them.

Experiments:
[1] = Solubility of active agents in neat alkyl ketal esters (dissolution, storage at room temperature); settings: for % solids dissolved in Et-LGK with heat, no precipitation / % solids in Et-LGK that did not (completely) dissolve or precipitated at room temperature / % solids dissolved in Et-LGK at room temperature, no precipitation: solvent Et-LGK; for % solids dissolved in Et-LGK with heat, no precipitation: dissolved at 35-80° C.; for % solids dissolved in Et-LGK with heat, no precipitation / % solids dissolved in Et-LGK at room temperature, no precipitation: still soluble after storage at room temperature (24 hours to 5 days) where stated; for % solids in Et-LGK that did not (completely) dissolve or precipitated at room temperature / % solids in Et-LPK that did not (completely) dissolve or precipitated at room temperature: insoluble; for % solids in Et-LGK that did not (completely) dissolve or precipitated at room temperature: partially dissolved or precipitated on room temperature storage; for solubility in many alkyl ketal esters: such as ethyl-LGK and ethyl-LPK; for 50/50 mixture with Et-LGK / 50/50 mixture with Et-LPK: room temperature where stated; for % solids dissolved in Bu-LGK with heat, no precipitation / % solids dissolved in Bu-LGK at room temperature, no precipitation: solvent Bu-LGK; for % solids dissolved in Bu-LGK with heat, no precipitation: dissolved at 50-80° C., still soluble after 24 hours at room temperature where stated; for % solids in Et-LPK that did not (completely) dissolve or precipitated at room temperature: not completely dissolved or precipitated on room temperature storage; for % solids dissolved in Et-LPK at room temperature, no precipitation: still soluble after 24 hours / 1 day at room temperature where stated; for % solids dissolved in Bu-LGK at room temperature, no precipitation: still soluble after 24 hours / 1 day at room temperature; for % solids dissolved in Et-LPK with heat, no precipitation: dissolved at 50-80° C. or with heat, still soluble after storage at room temperature (24 hours to 5 days)
[2] = Three-component miscibility test (mixing in a vial at room temperature and shaking, visual clarity)
From the text: The term “miscible” and its variations (“miscibility”, “compatibility”, and the like) are used herein as a synonym for “soluble”, i.e., a mixture of the materials by themselves form a “true” solution, in which one material is molecularly dispersed in the other, or in which one material is dispersed as droplets which have a longest dimension of less than 200 nm, such that the mixture is optically clear. […] A fully miscible alkyl ketal ester is soluble in another material, such as water, at all proportions from 99:1 to 1:99. A partially miscible alkyl ketal ester is immiscible in another material in proportions from greater than 30 parts of the alkyl ketal ester in 70 parts or less of the other material and miscible in other combinations. A sparingly miscible alkyl ketal ester is immiscible in another material or miscible in another material to the extent of less than 10 parts in 90 parts of the other material. […] Unless stated otherwise, miscibility is assessed at 25° C. […] By “macroscopically uniform,” it is meant that the formulation is uniform when viewed at a length scale of at least 10 micrometers.
In these tests, clear mixtures as observed without magnification from a distance of, e.g., 0.3 meters are considered to be “miscible,” whereas cloudy or phase separated mixtures are considered to be “immiscible.” […]
Three-component mixtures of ethyl-LGK, ethanol, and avobenzone were prepared by mixing the materials at various proportions at room temperature in a vial and shaking. […]
Three-component mixtures of ethyl-LGK, water, and oxybenzone were prepared by mixing the materials at various proportions at room temperature in a vial and shaking. […]
Three-component mixtures of Et-LGK, water, and phenoxyethanol were prepared by mixing the materials at various proportions at room temperature in a vial and shaking.
Three-component mixtures of N,N-diethyl-m-toluamide (DEET), ethyl-LGK, and water were prepared by mixing the materials at various proportions at room temperature in a vial and shaking.

[3] = Clarity of model hand sanitizer (isopropyl myristate / water / ethanol / ethyl-LGK); type: physicochemical
From the text: Thus, a formulation with 30 parts isopropyl myristate, 10 parts water, and 60 parts ethanol was cloudy. […] In either case, the potential for dryness increases due to reduction in emollient or increase in ethanol. […] This formulation retained the balance of emollient and ethanol, while still providing hydration through the presence of water. Alternatively, a portion of the ethanol can be replaced with Et-LGK without sacrificing clarity, even at higher water levels. […] This reduced ethanol formulation was less drying.

[4] = Miscibility of alkyl ketal esters with water and organic compounds; type: physicochemical; settings: for dissolves or is miscible with organic compounds to the extent of: organic compounds as listed in the block (alcohols, esters, oils, solvents), 80 parts of the ketal
Method: Unless stated otherwise, miscibility is assessed at 25° C.

Structure (SMILES): O=C(OOC(=O)c1ccccc1)c1ccccc1 [Benzoyl peroxide]
- % solids dissolved in Et-LGK with heat, no precipitation [1]: 5%
- % solids in Et-LGK that did not (completely) dissolve or precipitated at room temperature [1]: 9.5%
- solubility in many alkyl ketal esters [1]: lower solubilities

Structure (SMILES): CCN(CC)C(=O)c1cccc(C)c1 [DEET, N,N-diethyl-m-toluamide]
- solubility in ethanol and ethyl-LPK [2]: soluble
- clarity of DEET / ethyl-LGK / water mixture ([2]; 26.7 parts of DEET, 60.5 parts of ethyl-LGK, 12.8 parts of water, room temperature): clear mixture
- 50/50 mixture with Et-LGK [1]: miscible
- 50/50 mixture with Et-LPK [1]: miscible

Structure (SMILES): CCCOC(=O)c1ccc(O)cc1 [propyl paraben, Propyl paraben]
- level of miscibility in Et-LGK by itself [2]: ≤ 24%
- level at which by itself immiscible in water ([2]; no ketal): < 1 % by weight

Structure (SMILES): CCOC(=O)CCC1(C)OCC(CO)O1 (centres unmarked) [ethyl-LGK]
- miscible with water ([4]; 25° C. unless stated otherwise): in all proportions
- dissolves or is miscible with organic compounds to the extent of [4]: at least 20 parts of the organic compound in 80 parts

Structure (SMILES): CCOC(=O)CC1(C)OCC(CO)O1 (centres unmarked) [Et-AcAcGK]
- Result (miscibility of ketal with water) ([2]; 50.0% ketal / 50.0% water, no oxybenzone): Miscible
- miscible with water ([4]; 25° C. unless stated otherwise): in all proportions

Structure (SMILES): COC(=O)CC1(C)OCC(CO)O1 (centres unmarked) [Me-AcAcGK]
- miscible with water ([4]; 25° C. unless stated otherwise): in all proportions

Structure (SMILES): CCOC(=O)CCC1(C)OCC(C)O1 (centres unmarked) [ethyl-LPK]
- miscible in water to the extent of ([4]; 25° C. unless stated otherwise): 2.5 parts in 97.5 parts of water
- dissolves or is miscible with organic compounds to the extent of [4]: at least 20 parts of the organic compound in 80 parts

Structure (SMILES): Oc1ccc(C=Cc2cc(O)cc(O)c2)cc1 [Resveratrol]
- % solids dissolved in Bu-LGK with heat, no precipitation [1]: 0.5%
- % solids dissolved in Et-LGK at room temperature, no precipitation [1]: 1%
- % solids dissolved in Et-LPK with heat, no precipitation ([1]; solvent Et-LPK): 0.5%
- solubility in many alkyl ketal esters [1]: lower solubilities

Structure (SMILES): O=C(CCCCc1ccc2c(c1)OCO2)N1CCCCC1 [Tetrahydropiperine]
- % solids dissolved in Bu-LGK at room temperature, no precipitation [1]: 20%
- % solids dissolved in Et-LGK at room temperature, no precipitation [1]: 20%
- % solids dissolved in Et-LPK at room temperature, no precipitation ([1]; solvent Et-LPK): 20%

Structure (SMILES): CC1=C(/C=C/C(C)=C/C=C/C(C)=C/C(=O)O)C(C)(C)CCC1 [Retinoic acid]
- % solids soluble in Et-LPK at 80° C. ([1]; solvent Et-LPK, 80° C.): 1.88%
- solubility in many alkyl ketal esters [1]: lower solubilities

Second part, the molecule after the results:

- 50/50 mixture with Bu-LGK ([1]; room temperature): soluble
- 50/50 mixture with Et-LGK [1]: soluble
- 50/50 mixture with Et-LPK [1]: soluble
Structure (SMILES): CCCCC(CC)COC(=O)C=Cc1ccc(OC)cc1 (centres unmarked) [octyl methoxycinnamate, Ethylhexyl methoxy cinnamate]

- % solids dissolved in Bu-LGK with heat, no precipitation [1]: 10%
- % solids in Et-LGK that did not (completely) dissolve or precipitated at room temperature [1]: 20.8%
- % solids dissolved in Et-LGK at room temperature, no precipitation [1]: 15%
- % solids in Et-LPK that did not (completely) dissolve or precipitated at room temperature ([1]; solvent Et-LPK): 14.3%
- % solids dissolved in Et-LPK at room temperature, no precipitation ([1]; solvent Et-LPK): 11%
Structure (SMILES): O=C(O)c1ccccc1O [salicylic acid, Salicylic acid]

- clarity of formulation ([3]; 27 parts isopropyl myristate, 9 parts of water, 9 parts of ethyl-LGK and 55 parts of ethanol): clear solution
- clarity of formulation ([3]; 30 parts isopropyl myristate, 5 parts water, 5 parts ethyl-LGK and 60 parts ethanol): clear solution
- clarity of formulation ([3]; 30 parts isopropyl myristate, 10 parts water, 60 parts ethanol): cloudy
- clarity of formulation ([3]; no ketal, emollient level dropped to 22% at the same water level, or to 27% with an increase in ethanol): clear solution
Structure (SMILES): CCCCCCCCCCCCCC(=O)OC(C)C [isopropyl myristate]

- maximum solubility in propyl-LGK [2]: 10-18%
- upper limit of solubility in ethanol [2]: 6.5-10%
- concentration achieved in a solution ([2]; Et-AcAc-GK as a cosolvent (with water)): ≤ 29%
- concentration achieved in an ethanolic solution ([2]; Et-LEK as a cosolvent): ≤ 30%
- concentration achieved in a solution ([2]; Methyl-LGK as a cosolvent (with water)): ≤ 10%
- concentration achieved in a solution ([2]; alkyl ketal solvent mixture (Et-LGK and Et-LPK 80/20) as a cosolvent (with water)): ≤ 20%
- concentration achieved in a water solution ([2]; ethyl-LGK as a cosolvent): ≤ 13%
- concentration achieved in an ethanolic solution ([2]; ethyl-LGK as a cosolvent): ≤ 17%
- concentration achieved in an ethanolic solution ([2]; ethyl-LPK as a cosolvent): ≤ 28%
- level at which by itself immiscible in ethanol ([2]; no ketal): 10 % by weight
- level at which by itself immiscible in water ([2]; no ketal): 1 % by weight
- % solids dissolved in LEK with heat, no precipitation ([1]; after 2 weeks at room temperature): 37.5%
- % solids that did not dissolve in ACAc-GK ([1]; room temperature): 31.9%
- % solids that did not dissolve in methyl-LGK ([1]; room temperature): 14.9%
- % solids that did not dissolve in propyl-LGK ([1]; room temperature): 17.8%
- % solids dissolved in Bu-LGK at room temperature, no precipitation [1]: 10%
- % solids dissolved in Et-LEK at room temperature ([1]; solvent Et-LEK): 28.5%
- % solids dissolved in Et-LGK with heat, no precipitation [1]: 20%
- % solids in Et-LGK that did not (completely) dissolve or precipitated at room temperature [1]: 25%
- % solids dissolved in Et-LGK at room temperature, no precipitation [1]: 10% and 18%
- % solids dissolved in Et-LPK with heat, no precipitation ([1]; solvent Et-LPK): 30%
- % solids in Et-LPK that did not (completely) dissolve or precipitated at room temperature ([1]; solvent Et-LPK): 40%
Structure (SMILES): COc1ccc(C(=O)c2ccccc2)c(O)c1 [oxybenzone, Oxybenzone]
